Measurements taken from US20180117644A1, “METHOD FOR WASHING SEVOFLURANE STORAGE CONTAINER AND METHOD FOR STORING SEVOFLURANE” (CENTRAL GLASS COMPANY, LIMITED, priority 2016, published 2018).
Like-named read-outs stand apart in the source and are kept apart here.

Assays:
[1] = Degradation of sevoflurane (severe testing) with alumina, gas chromatographic composition; assay type: physicochemical; conditions: sevoflurane with moisture 6 ppm, alumina 50 mg, 50° C., 64 hours, after third water washing
Method: In Example 1, sevoflurane was treated under conditions more stringent than actual sevoflurane storage conditions so that “polyether” was forcibly generated. Specifically, according to the disclosure of Patent Literature 5, the water content of sevoflurane was adjusted to be lower than that of sevoflurane obtained as a final product (6 ppm). Further, sevoflurane was heated to 50° C. under the presence of oxidized aluminium (alumina) serving as Lewis acid (i.e., a substance that is considered to catalyze sevoflurane degradation in Patent Literature 5). As a result, a portion of sevoflurane was degraded into polyether, resulting in generation of “sevoflurane containing polyether” in the system. It was attempted to wash the obtained “sevoflurane containing polyether” with water.
Sevoflurane (used as a pharmaceutical product) (100 cm^3) was placed in a erlenmeyer flask and cooled to 10° C. in a refrigerator. Then, synthetic zeolite was introduced into the erlenmeyer flask so that the weight ratio of synthetic zeolite:sevoflurane became 1:4. Next, the erlenmeyer flask was allowed to stand still in a refrigerator at 10° C. for 2 hours and 30 minutes for drying of sevoflurane (reduction of water content).
Alumina (50 mg) was placed in a 50-cm^3 brown bottle with a narrow mouth. Sevoflurane having a moisture content of 6 ppm prepared in (1-1) (20 cm^3, 29.9 g) was added thereto.
Next, the cap of the brown bottle with a narrow mouth was closed and the bottle was heated in a thermostatic bath at 50° C. for 64 hours. After heating for 64 hours, the bottle was cooled in a refrigerator (10° C.) for 1 hour.
As the sevoflurane obtained as a result of severe testing in (1-2) contained hydrogen fluoride (HF), water washing (back extraction of HF into an aqueous phase) was conducted for the ease of handling. Specifically, the sevoflurane subjected to severe testing and water (15 cm^3) were introduced into a separatory funnel made of tetrafluoroethylene, stirred for 1 minute, and allowed to stand still for 1 minute, followed by liquid separation. Then, the aqueous phase was collected and pH was checked using a pH test paper.
Meanwhile, after the third water washing, the gas chromatographic composition of the organic phase was detected as follows: sevoflurane: about 87%; polyether 1: 8.4% (84000 ppm); and polyether 2: 4.0% (40000 ppm). In addition, 190 ppm of hexafluoroisopropyl alcohol (HFIP) was detected.

[2] = cited from earlier work
[3] = Moisture content of liquid sevoflurane stored with dry nitrogen in autoclave (Karl Fischer); assay type: physicochemical
Method: A 1-dm^3 autoclave (SUS304) used as a sevoflurane storage container was filled with dry nitrogen. Liquid sevoflurane (i.e., a sevoflurane product containing 400 ppm of water) (30 g) was added thereto. The autoclave was hermetically closed and stored at room temperature for 1 month. Then, moisture content was measured using a Karl Fischer moisture meter. […] The liquid sevoflurane was stored for another month in the autoclave in the same manner. Then, the moisture content was measured again.

[4] = as disclosed in Patent Literature 5; cited from earlier work

FCOC(C(F)(F)F)C(F)(F)F [sevoflurane, Fluoromethyl-1,1,1,3,3,3-hexafluoroisopropyl ether]
gas chromatographic composition of the organic phase: polyether 1 [1]: 8.4% | gas chromatographic composition of the organic phase: polyether 2 [1]: 4.0% | gas chromatographic composition of the organic phase: sevoflurane [1]: about 87% | hexafluoroisopropyl alcohol (HFIP) detected in the organic phase [1]: 190 ppm | vapor pressure ([2]; 25° C.): about 0.026 MPa | vapor pressure ([2]; 35° C.): about 0.041 MPa | vapor pressure ([2]; 45° C.): about 0.061 MPa | moisture content ([3]; product containing 400 ppm of water, 30 g in 1-dm^3 autoclave (SUS304) filled with dry nitrogen, room temperature, 1 month): 360 ppm | moisture content ([3]; same storage, another month (2 months in total)): 350 ppm | upper limit of the amount of water that can be mixed with sevoflurane [4]: about 1400 ppm
